Legend:
Phosphodiesterase 3 = Phosphodiesterase 3 (Homo sapiens, UniProt Q14432+Q13370); experiment: Inhibitory activity of the against phosphodiesterase 3 (PDE3); No significant inhibitory activity at pIC50; format: protein assay
Phosphodiesterase 4 = Phosphodiesterase 4 (Homo sapiens, UniProt P27815+Q08499+Q07343+Q08493); experiment: Inhibition of phosphodiesterase 4 (PDE4) in human neutrophils; format: protein assay

Row | SMILES | pIC50 (Phosphodiesterase 3) | pIC50 (Phosphodiesterase 4)
1 | COc1ccc([C@]2(C#N)CC[C@@H](C(=O)O)CC2)cc1OC1CCCC1 [CILOMILAST] | < 5.5 | –
2 | COc1ccc(C2=NN(Cc3ccccc3)C(=O)C3CCCCC23)c2c1OC1(CCCC1)C2 (stereo not given) | < 5.5 | 8.6
3 | COc1cc(C2=NN(Cc3ccccc3)C(=O)C3CCCCC23)ccc1OC1CCCC1 (stereo not given) | < 5.5 | < 5
4 | COc1ccc(C2=NN(C3CCCCCC3)C(=O)C3CC=CCC23)cc1OCCCCCc1ccccc1 (stereo not given) | < 5.5 | 8.3
5 | COc1ccc(C2=NN(C3CCCCCC3)C(=O)C3CC=CCC23)c2c1OC(C)(C)C2 (stereo not given) | < 5.5 | 9
6 | COc1ccc(C2=NN(C3CCCCCC3)C(=O)C3CC=CCC23)cc1OCCCCOc1ccc(C(=O)O)cc1 (stereo not given) | < 5.5 | 9.5
7 | COc1ccc(C2=NN(C3CCCCCC3)C(=O)C3CC=CCC23)cc1OCCO (stereo not given) | < 5.5 | 8.4
8 | COc1ccc(C2=NN(C3CCCCCC3)C(=O)C3CC=CCC23)cc1OCCCCN(C)C (stereo not given) | < 5.5 | 7.4
9 | COc1ccc(C2=NN(C3CCCCCC3)C(=O)C3CC=CCC23)cc1OCCCCC(=O)O (stereo not given) | < 5.5 | 7.8
10 | COc1ccc(C2=NN(C3CCCCCC3)C(=O)C3CC=CCC23)cc1OCCCCOc1ccc(-c2nn[nH]n2)cc1 (stereo not given) | < 5.5 | 9.2
11 | COc1ccc(C2=NN(C3CCCCCC3)C(=O)C3CC=CCC23)cc1OCCCCn1ccnc1 (stereo not given) | < 5.5 | 8.1
12 | COc1ccc(C2=NN(C3CCCCCC3)C(=O)C3CC=CCC23)cc1O (stereo not given) | < 5.5 | 7.4
13 | COc1ccc([C@@H]2CNC(=O)C2)cc1OC1CCCC1 [(-)-ROLIPRAM] | < 5.5 | –
14 | O=C1C2CCCCC2C(c2cccc(Cl)c2)=NN1Cc1ccccc1 (stereo not given) | < 5.5 | < 5
15 | COc1ccc(C2=NN(C3CCCCCC3)C(=O)C3CC=CCC23)cc1OCCCCOc1ccc(C#N)cc1 (stereo not given) | < 5.5 | 8.6
16 | COc1ccc(C2=NN(C3CCCCCC3)C(=O)C3CC=CCC23)cc1OCCCCOc1ccc(-n2ccnc2)cc1 (stereo not given) | < 5.5 | 9.7
17 | COc1ccc(C2=NN(Cc3ccccc3)C(=O)C3CCCCC23)cc1OC (stereo not given) | < 5.5 | 8.1
18 | O=C1C2CCCCC2C(c2ccccc2)=NN1Cc1ccccc1 (stereo not given) | < 5.5 | < 5

Row | SMILES | pIC50 (Phosphodiesterase 3) | pIC50 (Phosphodiesterase 4)
19 | COc1ccc(C2=NN(C3CCCCCC3)C(=O)C3CC=CCC23)cc1OCCN(C)C (stereo not given) | < 5.5 | 7.2
20 | COc1ccc(C2=NN(C3CCCCCC3)C(=O)C3CC=CCC23)cc1OCC1CC1 (stereo not given) | < 5.5 | 9
21 | CCOc1ccc(C2=NN(Cc3ccccc3)C(=O)C3CCCCC23)cc1OCC (stereo not given) | < 5.5 | 7.8
22 | COc1ccc(C2=NN(C3CCCCCC3)C(=O)C3CC=CCC23)cc1OCCCCCCOc1ccc(C(N)=O)cc1 (stereo not given) | < 5.5 | 9.5
23 | COc1ccc(C2=NN(C3CCCCCC3)C(=O)C3CC=CCC23)cc1OCCCCCCOc1ccc(C(=O)O)cc1 (stereo not given) | < 5.5 | 8.7
24 | O=C1C2CCCCC2C(c2ccc3c(c2)OCO3)=NN1Cc1ccccc1 (stereo not given) | < 5.5 | 5.8
25 | COc1ccc(C2=NN(Cc3ccccc3)C(=O)C3CCCCC23)cc1 (stereo not given) | < 5.5 | 5.9
26 | COc1ccc(C2=NN(C3CCCCCC3)C(=O)C3CC=CCC23)cc1OC1CCCC1 (stereo not given) | < 5.5 | 8.9
27 | COc1ccc(C2=NN(C3CCCCCC3)C(=O)C3CC=CCC23)cc1OCCCC(=O)O (stereo not given) | < 5.5 | 7.2
28 | COc1cccc(C2=NN(Cc3ccccc3)C(=O)C3CCCCC23)c1 (stereo not given) | < 5.5 | 5.6
29 | COc1ccc(C2=NN(C3CCCCCC3)C(=O)C3CC=CCC23)cc1OCC(=O)O (stereo not given) | < 5.5 | 5.6
30 | COc1ccc(C2=NN(C3CCCCCC3)C(=O)C3CC=CCC23)cc1OC(F)F (stereo not given) | < 5.5 | 8.8
31 | COc1ccc(C2=NN(Cc3ccccc3)C(=O)C3CCCCC23)cc1OC1CCCC1 (stereo not given) | < 5.5 | 8
32 | COc1ccc(C2=NN(C3CCCCCC3)C(=O)C3CC=CCC23)cc1OCCCCCCOc1ccccc1 (stereo not given) | < 5.5 | 8
33 | COc1ccc(C2=NN(C3CCCCCC3)C(=O)C3CC=CCC23)cc1Cl (stereo not given) | < 5.5 | 8
34 | COc1ccc(C2=NN(C3CCCCCC3)C(=O)C3CC=CCC23)cc1OCCCCn1cnc2ncncc21 (stereo not given) | < 5.5 | 7.6
35 | COc1ccc(C2=NN(C3CCCCCC3)C(=O)C3CC=CCC23)c2c1OC1(CCCC1)C2 (stereo not given) | < 5.5 | 9.2
36 | COc1ccc(C2=NN(C3CCCCCC3)C(=O)C3CC=CCC23)cc1OC (stereo not given) | < 5.5 | 9.1
